Test results reported in ChEMBL document CHEMBL4190179 (Medchemcomm, 2016).

Assays:
[1] = Inhibition of PMA-stimulated Il-17A production in mouse Th17 cells at 0.3 uM by live/dead fixable dead cell staining based flow cytometric analysis relative to control; type: functional
[2] = (§1) Inhibition of PMA-stimulated Il-17A production in mouse Th17 cells by live/dead fixable dead cell staining based flow cytometric analysis; type: functional
Mus musculus = species: Mus musculus; assay: as §1; type: functional
[3] = biological target: T1, Nuclear receptor ROR-gamma (Homo sapiens, UniProt P51449); assay: Inverse agonist activity at RORgammat (unknown origin) by FRET assay
T1 sequence (P51449 whole entry): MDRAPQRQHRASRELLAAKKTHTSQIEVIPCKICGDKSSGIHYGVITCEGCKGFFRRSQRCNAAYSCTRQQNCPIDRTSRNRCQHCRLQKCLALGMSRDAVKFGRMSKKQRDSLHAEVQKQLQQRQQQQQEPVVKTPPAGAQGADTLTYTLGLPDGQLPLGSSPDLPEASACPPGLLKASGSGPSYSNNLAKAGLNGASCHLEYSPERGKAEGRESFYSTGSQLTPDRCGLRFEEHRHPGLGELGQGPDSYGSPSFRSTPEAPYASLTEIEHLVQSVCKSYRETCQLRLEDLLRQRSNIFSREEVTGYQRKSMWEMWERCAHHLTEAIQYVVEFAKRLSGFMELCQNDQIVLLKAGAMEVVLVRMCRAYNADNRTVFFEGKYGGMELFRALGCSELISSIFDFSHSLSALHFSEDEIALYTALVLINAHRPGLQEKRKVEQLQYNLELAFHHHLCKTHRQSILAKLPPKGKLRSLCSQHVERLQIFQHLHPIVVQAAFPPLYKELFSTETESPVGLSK

| Structure (SMILES) | inhibition at 0.3 µM [1] | other results |
| --- | --- | --- |
| COc1ccc(Cl)c(-c2ccc(NC(=O)C3CCN(C)CC3)cc2)c1 | 16% |  |
| O=C(Nc1ccc(-c2cccnc2)cc1)c1c(F)cccc1F | 17% |  |
| COc1ccc(Cl)c(-c2ccc(NC(=O)C3CCOCC3)cc2)c1 | 35% |  |
| COc1ccc(Cl)c(-c2ccc(NC(=O)c3c(F)cccc3F)cc2Cl)c1 | 75% |  |
| COc1ccc(Cl)c(-c2ccc(NC(=O)c3c(F)cccc3F)cc2F)c1 | 82% |  |
| COc1ccc(Cl)c(-c2ccc(NC(=O)c3c(F)cccc3F)cc2)c1 | 71% |  |
| COc1ccc(Cl)c(-c2ccc(NC(=O)c3ncccc3F)cc2)c1 | 22% |  |
| COc1ccc(Cl)c(-c2ccc(NC(=O)c3ccccc3Cl)cc2)c1 | 39% |  |
| COc1ccc(Cl)c(-c2ccc(NC(=O)C3CCCO3)cc2)c1 (configuration not stated) | 30% |  |
| COc1ccc(Cl)c(-c2ccc(NC(=O)Cc3ccccc3)cc2)c1 | 33% |  |
| COc1ccc(Cl)c(-c2ccc(NC(=O)Cc3ccccc3F)cc2)c1 | 19% |  |
| O=C(Nc1ccc(-c2ccccc2)cc1)c1c(F)cccc1F | 45% |  |
| COCC(=O)Nc1ccc(-c2cc(OC)ccc2Cl)cc1 | 1% |  |
| COc1ccc(Cl)c(-c2cccc(NC(=O)c3c(F)cccc3F)c2)c1 | 12% |  |
| COc1ccc(Cl)c(-c2ccc(NC(=O)c3ccccc3F)cc2)c1 | 43% |  |
| O=C(Nc1ccc(-c2cc(OC(F)(F)F)ccc2Cl)cc1)c1c(F)cccc1F | 97% | IC50 [2]: 13 nM; inhibition (Mus musculus): Dose-dependent effect; IC50 [3]: > 50000 nM |
| COc1ccc(C)c(-c2ccc(NC(=O)c3c(F)cccc3F)cc2)c1 | 93% |  |

| Structure (SMILES) | inhibition at 0.3 µM [1] | other results |
| --- | --- | --- |
| Cn1cc(-c2ccc(NC(=O)c3c(F)cccc3F)cc2)cn1 | -7% |  |
| COc1ccc(Cl)c(-c2ccc(NC(=O)c3ccccc3C(F)(F)F)cc2)c1 | 25% |  |
| COc1ccc(Cl)c(-c2ccc(NC(=O)c3c(F)cccc3F)cn2)c1 | 29% |  |
| COc1ccc(Cl)c(-c2ccc(NC(=O)C3CCCCC3)cc2)c1 | 26% |  |
| COc1ccc(Cl)c(-c2ccc(NC(=O)C(C)C)cc2)c1 | 22% |  |
| O=C(Nc1ccc(-c2ccccc2Cl)cc1)c1c(F)cccc1F | 48% |  |
| COc1ccc(Cl)c(-c2ccc(NC(=O)C3CC3)cc2)c1 | 35% |  |
| COc1ccc(Cl)c(-c2ccc(NC(=O)C3CCCC3)cc2)c1 | 34% |  |
| COc1ccc(Cl)c(-c2ccc(NC(=O)CCc3ccccc3)cc2)c1 | 24% |  |
| COc1ccc(Cl)c(-c2ccc(NC(=O)CC3CC3)cc2)c1 | 9% |  |
| COc1ccc(Cl)c(-c2ccc(NC(=O)CC3CCOCC3)cc2)c1 | 8% |  |
| Cc1ccc(-c2ccc(NC(=O)c3c(F)cccc3F)cc2)cn1 | 4% |  |
| COc1ccc(Cl)c(-c2ccc(NC(C)=O)cc2)c1 | 11% |  |
| Cc1ccccc1-c1ccc(NC(=O)c2c(F)cccc2F)cc1 | 60% |  |
| COc1ccc(Cl)c(-c2ccc(NC(=O)c3ccccc3)cc2)c1 | 35% |  |
| COc1ccc(Cl)c(-c2ccc(NC(=O)c3c(F)cccc3Cl)cc2)c1 | 64% |  |
| O=C(O)c1ccc(Cl)c(-c2ccc(NC(=O)c3c(F)cccc3F)cc2)c1 | 7% |  |
